Data reported in patent US7964628B2, “Fibrinogen receptor antagonists and their use” (Piramal Life Sciences Limited, priority 2003, dated 2011).

How the values were obtained:
[1] = tested on: ADP-induced human platelet aggregation; test: Inhibition of platelet aggregation in human PRP (ADP-induced); format: cell-based; conditions: 0.05 h, 3 min at 37° C., ADP 5-15 μM final concentration
Procedure: Human blood (150 ml) was collected from the ante-cubital vein of normal healthy volunteers (who were not on any medication for the past two weeks), into a siliconized glass bottle containing 25 ml of acid-citrate-dextrose (ACD) solution and 10 units of hirudin. The blood was immediately centrifuged at 200×g for 20 min at room temperature. Platelet-rich plasma (PRP) was separated and the platelet count read using a Beckman Coulter A^cT diff Counter. The tubes were centrifuged again at 2000×g for 10 min at room temperature, to get platelet-free plasma (PFP). The platelet count of PRP was adjusted to 3×10^8 platelets/ml by appropriate dilution with PFP. All in vitro experiments were conducted using PRP with adjusted number of platelets.
Inhibition of Platelet Aggregation in Human PRP (Born, G. V. R.; Cross, M. J., J. Physiol, 1963, 168, 175)
PRP was incubated with different concentrations of the test compound for 3 min at 37° C. Platelet aggregation was then induced by the addition of ADP (5-15 μM final concentration). Percent inhibition of platelet aggregation was then calculated by comparing test aggregation values with control values (Table 1).

Row | Structure (SMILES) | IC50 [1] [nM] | melting point [°C]
1 | CCOC(=O)COc1ccc(C(=O)CN2Cc3cc(C(=N)N)ccc3C2=O)cc1 [Example 3, (4-{2-[5-Carbamimidoyl-1-oxo-1,3-dihydro-isoindol-2-yl]-acetyl}-phenoxy)-acetic acid ethyl ester] | 93 | 185 to 187
2 | CC(C)COC(=O)COc1ccc(C(=O)CN2Cc3cc(C(=N)N)ccc3C2=O)cc1OCC(=O)OCC(C)C [Example 24, (4-{2-[5-Carbamimidoyl-1-oxo-1,3-dihydro-isoindol-2-yl]-acetyl}-2-isobutoxycarbonylmethoxy-phenoxy)acetic acid isobutyl ester] | 6 | 
3 | CCOC(=O)COc1ccc(C(=O)CN2Cc3cc(C(=N)N)ccc3C2=O)cc1OCC(=O)OCC [Example 20, (4-{2-[5-Carbamimidoyl-1-oxo-1,3-dihydro-isoindol-2-yl]-acetyl}-2-ethoxycarbonylmethoxy-phenoxy)-acetic acid ethyl ester] | 50 | 
